Experimental findings from patent US7144867B2, “Anticancer glycoside compounds” (priority 2004, dated 2006) are described below.

One data set concerns caspase 3. In words: Western blotting, caspase 3 in AsPC-1 cells. The data set is classed as cell-based, human. The following applies: 4 μg/mL, time-dependent (FIG. 3). As for the experimental part: (§1) Western blotting. Cells were seeded into flasks and cultured to 50% to 60% confluence for 24 hours. Cells were then placed in serum-free medium with or without 4 μg/mL frondoside A for periods of 0, 24, 48 and 72 hours respectively. Proteins were extracted from attached and floating cells in lysis buffer containing 4% SDS. Protein concentrations were determined using the bicinchoninic acid assay with BSA as standard. Western blotting was carried out. In brief, equal amounts of protein in the cell lysates were separated on 15% SDS-PAGE and the proteins were transferred onto nitrocellulose membranes. After blocking non-specific sites with dried milk, membranes were incubated with the appropriate dilution of primary antibody. Membranes were then incubated with a horseradish peroxidase conjugated secondary antibody. Proteins were detected using an enhanced chemiluminescence detection system.
Background: Immunoblotting shows a protein as a band on a membrane.

A further data set relates to p27. Nature of the data set: Western blotting, p27 in AsPC-1 cells. The data set is classed as cell-based, human. The following applies: 4 μg/mL (FIG. 5). As for the experimental part: as §1
The subject of data set [1] is AsPC-1 cells. In words: TUNEL assay. The data set is classed as cell-based, human. The following applies: 4 μg/mL, 72 hours; control 2.4%, P<0.001. As for the experimental part:
Terminal deoxynucleotidyl transferase-mediated deoxyuridine triphosphate nick-end labeling (TUNEL) assay. The assay was carried out for terminal incorporation of fluorescein 12-dUTP by terminal deoxynucleotidyl transferase into fragmented DNA in cancer cells (TUNEL assay kits, Promega, Madison, Wis.). Cells were cultured to 50%–60% confluence in T75 flasks in serum-free conditions for 24 hours and then treated with or without 4 μg/mL Frondoside A for 72 hours. Cells were then trypsinized and fixed in 1% methanol-free formaldehyde-PBS for 15 minutes. At the end of treatment, cells were harvested with trypsin-EDTA solution to produce a single cell suspension. Cells were then pelleted by centrifugation and washed twice with PBS. Cell pellets were suspended in 0.5 ml PBS and fixed in ice-cold 70% ethanol at 4° C. Fixed cells were centrifuged at 300×g for 10 minutes and pellets were washed with PBS. After resuspension with 1 ml PBS, cells were incubated with 10 μL of RNase I (10 mg/mL) and 100 μL of propidium iodide (400 μg/mL; Sigma) and shaken for 1 hour at 37° C. in the dark. Samples were analyzed by flow cytometry. Laser flow cytometry was used to quantify the green fluorescence of fluorescein-12-dUTP incorporated against the red fluorescence of propidium iodide.

The test system of data set [2] is AsPC-1 cells. In words: Annexin V assay. The data set is classed as cell-based, human. Conditions: 4 μg/mL, within 3 hours. As for the experimental part:
Annexin V assay. […] The cells were then rinsed with PBS and 500 μL of assay buffer once. Then, 200 μL of assay buffer, 4 μL of annexin-V FITC, and 20 μL of propidium iodide were added to each coverslip. The coverslip were then incubated at room temperature for 15 min in the dark and washed once with PBS. Cells were finally viewed under fluorescence microscope using a dual filter set for FITC and rhodamine, and pictures were taken using a Kodak DC 120 digital zoom camera (Eastman Kodak Company, Rochester, N.Y.).

The subject of data set [3] is PC-3 (human prostate adenocarcinoma). Nature of the data set: cells. The following applies: for Percent Growth (Mean ± SEM, n = 2): 72-hour. The procedure:
Test Substance and Concentration. Frondoside A (FAS) was dissolved in 100% DMSO and then diluted with sterile distilled water to obtain initial working solutions of 1000, 300, 100, 30, and 10 μM in 40% DMSO. […]
Cell Line and Culture Media. The tumor cell line PC-3 (human prostate adenocarcinoma), obtained from American Type Culture Collection (ATCC CRL-1435), was incubated in air atmosphere of 5% CO2 at 37° C. The culture medium used was F-12K Nutrient Mixture (Kaighn's Modification) with 3% fetal bovine serum, which was supplemented with 1% Antibiotic-Antimycotic.
Evaluation of anti-proliferation for test substances. Aliquots of 100 μl of cell suspension (about 2.5×10^3 cells/well) were placed in 96-well microtiter plates in an atmosphere of 5% CO2 at 37° C. […] Thus, the final concentration of DMSO was 0.4%. The Frondoside A was evaluated for possible inhibitory effects on cell proliferation at concentrations of 10, 3, 1, 0.3 and 0.1 μM. At the end of incubation, 20 μl of 90% alamarBlue reagent was added to each well for another 6-hour incubation before detection of cell viability by fluorescent intensity. Fluorescent intensity was measured using a Spectrafluor Plus plate reader with excitation at 530 nm and emission at 590 nm.
Determination of IC50, TGI and LC50. The measured results was calculated by the following formula: PG(%)=100%×(Mean Ftest−Mean Ftime0)/(Mean Fctrl−Mean Ftime0) If (Mean Ftest−Mean Ftime0)<0, then PG (%)=100%×(Mean Ftest−Mean Ftime0)/(Mean Ftime0−Mean Fblank) Where: • PG: percent growth • Mean Ftime0=The average of 2 measured fluorescent intensities of reduced alamarBlue at the time just before exposure of cells to the test substance. • Mean Ftest=The average of 2 measured fluorescent intensities of alamarBlue after 72-hour exposure of cells to the test substance. • Mean Fctrl=The average of 2 measured fluorescent intensities of alamarBlue after 72-hour incubation without the test substance. • Mean Fblank=The average of 2 measured fluorescent intensities of alamarBlue in medium without cells after 72-hour incubation.

In the next data set the test system is Mcl-1. Nature of the data set: Western blotting, Mcl-1 in AsPC-1 cells. Conditions: 4 μg/mL, time-dependent (FIG. 4). In kind it is cell-based, human. The procedure: as §1

For the molecule `COC1C(O)C(CO)OC(OC2C(O)COC(OC3C(C)OC(OC4C(OC5CCC6(C)C7CCC89C(=O)OC(C)(CCCC(C)C)C8C(OC(C)=O)CC9(C)C7=CCC6C5(C)C)OCC(OS(=O)(=O)[O-])C4O)C(OC4OCC(O)C(O)C4O)C3O)C2O)C1O.[Na+]` [Frondoside A, 3-O-methyl-β-D-glucopyranosyl-(1→3)-β-D-xylopyranosyl-(1→4)-[β-D-xylopyranosyl-(1→2)]-β-D-quinovopyranosyl-(1→2)-4-O-sodium sulfate-β-D-xylopyranosyl-3-O-holost-7(8)-en-3β-ol-16β-O-acetate], the “activation of caspase 3 (cleavage of procaspase 3)” value with caspase 3 is listed as “cleaved into products of lower molecular weight”. In the data set on p27, the “expression of p27” value is on record as “not changed”. In addition, in the data set with AsPC-1 cells [1], the TUNEL staining came out at 36.1%. The “Annexin V binding” value in the data set with AsPC-1 cells [2] was “Annexin V binding was observed”. The “Percent Growth (Mean ± SEM, n = 2)” value in data set [3] (PC-3, 0.1 μM) is 98 ± 3%; in data set [3] (PC-3, 0.3 μM), 103 ± 1%; in data set [3] (PC-3, 1 μM) it was 98 ± 3%; in data set [3] (PC-3, 3 μM) it was −98 ± 1%; in data set [3] (PC-3, 10 μM) it was −97 ± 1%. The “TGI (Total Growth Inhibition)” value in data set [3] (PC-3, semi-quantitative, nonlinear regression) turned out to be 1700 nM. The “growth inhibition of PC-3 relative to the vehicle treated control group” value in data set [3] (between 1 and 10 μM) is recorded as “significant growth inhibition”. In data set [3] (read-out: IC50 (50% Inhibition Concentration), PC-3, semi-quantitative, nonlinear regression), the IC50 turned out to be 1500 nM. Besides, in data set [3] (read-out: LC50 (50% Lethal Concentration), PC-3, semi-quantitative, nonlinear regression), the CC50 was determined as 2000 nM. For the same molecule, in the data set on Mcl-1, the “expression of Mcl-1” value is on record as “decreased expression”.
